Test results from patent publication US20190224186A1, “TREATMENT OF MULTIPLE SCLEROSIS WITH CHS-131” (InteKrin Therapeutics, Inc., priority 2016, published 2019).
Several values for one entry are separate records, joined by “and”; a condition that tells them apart may be missing. Identical values can stand only once.

Key:
Assay type in all cases: in vivo, human
[1] = system: MS patients in the relapsing and remitting course of the disease (RRMS); experiment: Phase 2 trial: change in cortical (neocortical) volume by MRI, SIENAX-MTP3; conditions: 1 mg
[2] = system: MS patients in the relapsing and remitting course of the disease (RRMS); experiment: Phase 2 trial: number of new gadolinium contrast-enhancing (CE) T1-weighted lesions on monthly MRI over 6 months; conditions: for LSMean cumulative number of new CE lesions over 6 months / mean cumulative number of new CE lesions over 6 months: n=70
Protocol: A Phase 2, randomized, double-blind, placebo-controlled, multi-center clinical trial of CHS-131 for the treatment of multiple sclerosis (MS) was conducted. The primary endpoint was the number of new gadolinium contrast-enhancing (CE) T1-weighted lesions on monthly MRI over 6 months.
The study enrolled MS patients in the relapsing and remitting course of the disease (RRMS) who had been diagnosed within ≤3 years of enrollment. Patients had to be treatment-naïve, have ≥1 gadolinium-positive lesion within 12 months of enrollment, and have an Expanded Disability Status Score (EDSS) of 0-6 at screening.
Part 1 was a double-blind, parallel-group, 6-month study. Patients were randomized to oral CHS-131 at 3 mg or 1 mg or placebo in a 1:1:1 ratio at 21 sites in Russia. Monthly MRIs were read in a blinded fashion at the Buffalo Neuroimaging and Analysis Center, Buffalo, N.Y., USA. Part 2 is an open label, 6-month, safety extension study, in which all subjects transition to 1 mg CHS-131 daily, to evaluate clinical response, CE lesions on MM, and safety.
The mean cumulative number of new CE lesions over 6 months was 4.2 (LSMean 3.10) for 3 mg CHS131 (n=70), 7.6 (LSMean 5.15) for 1 mg CHS131 (n=70), and 7.8 (LSMean 6.49) for placebo (n=69). The response was dose-dependent. […] FIG. 2 provides a graphical representation of these LSMean data.
Upon completion of the six month trial period described in Example 1, the number of new gadolinium CE T1-weighted lesions was evaluated in the entire study population and separately in men and women.
The ratios of changes in lesions were evaluated by a least square means (LSMeans) analysis. In such an analysis, multiple factors including both categorical (e.g. treatment, center, gender) and continuous covariates (e.g. baseline measures) can be accounted for.

[3] = system: MS patients in the relapsing and remitting course of the disease (RRMS); experiment: Phase 2 trial: annualized confirmed relapse rate (ARR)
Protocol: The study enrolled MS patients in the relapsing and remitting course of the disease (RRMS) who had been diagnosed within ≤3 years of enrollment. Patients had to be treatment-naïve, have ≥1 gadolinium-positive lesion within 12 months of enrollment, and have an Expanded Disability Status Score (EDSS) of 0-6 at screening. Part 1 was a double-blind, parallel-group, 6-month study. Patients were randomized to oral CHS-131 at 3 mg or 1 mg or placebo in a 1:1:1 ratio at 21 sites in Russia. Monthly MRIs were read in a blinded fashion at the Buffalo Neuroimaging and Analysis Center, Buffalo, N.Y., USA. Part 2 is an open label, 6-month, safety extension study, in which all subjects transition to 1 mg CHS-131 daily, to evaluate clinical response, CE lesions on MM, and safety. The ARR was lower for both 3 mg CHS-131 (0.26) and 1 mg (0.28) as compared with placebo (0.35). Thus, administering CHS-131 reduces the rate at which relapses of worsening neurological function (e.g. flare-ups or exacerbations) occur. Put otherwise, administration of CHS-131 increases the time between relapses.

O=S(=O)(Nc1cc(Cl)c(Oc2cnc3ccccc3c2)c(Cl)c1)c1ccc(Cl)cc1Cl [CHS-131]
reduction in the loss of cortical volume [1]: No reduction in the loss of cortical volume was observed
Cortical volume, percent change from baseline to 6 month, Mean ([1]; n=50): −1.350%
Cortical volume, percent change from baseline to 6 month, Median ([1]; n=50): −1.428%
Cortical volume, percent change from baseline to 3 month, Mean ([1]; n=57): −0.706%
Cortical volume, percent change from baseline to 3 month, Median ([1]; n=57): −0.746%
incidence of new CE lesions lower than with placebo ([2]; 1 mg, 6 months): 21%
LSMean cumulative number of new CE lesions over 6 months ([2]; 1 mg): 5.15
mean cumulative number of new CE lesions over 6 months ([2]; 1 mg): 7.6
LSMean cumulative number of new CE lesions over 6 months ([2]; 3 mg): 3.10
mean cumulative number of new CE lesions over 6 months ([2]; 3 mg): 4.2
reduction of incidence of new CE lesions versus placebo ([2]; 3 mg, whole population, 6 months, p=0.003): 52% and 53%
LSMean # of Lesions (new gadolinium CE T1-weighted, 6 months) ([2]; Female, 1 mg): 5.48
Mean # of Lesions (new gadolinium CE T1-weighted, 6 months, observed data) ([2]; Female, 1 mg): 8.01
Percent Change from Placebo (observed mean # of lesions) ([2]; Female, 1 mg): 3.2%
Percent Change from Placebo (inverse of ratio of LSMeans treatment:placebo) ([2]; Female, 1 mg, p 0.8481): −5% (0.8481)
LSMean # of Lesions (new gadolinium CE T1-weighted, 6 months) ([2]; Female, 3 mg): 4.18
Mean # of Lesions (new gadolinium CE T1-weighted, 6 months, observed data) ([2]; Female, 3 mg): 4.97
Percent Change from Placebo (observed mean # of lesions) ([2]; Female, 3 mg): −36.0%
Percent Change from Placebo (inverse of ratio of LSMeans treatment:placebo) ([2]; Female, 3 mg, p 0.2516): −28% (0.2516)
LSMean # of Lesions (new gadolinium CE T1-weighted, 6 months) ([2]; Male & Female, 1 mg): 5.15
Mean # of Lesions (new gadolinium CE T1-weighted, 6 months, observed data) ([2]; Male & Female, 1 mg): 7.19
Percent Change from Placebo (observed mean # of lesions) ([2]; Male & Female, 1 mg): −9.6%
Percent Change from Placebo (inverse of ratio of LSMeans treatment:placebo) ([2]; Male & Female, 1 mg, p 0.3049): −21% (0.3049)
LSMean # of Lesions (new gadolinium CE T1-weighted, 6 months) ([2]; Male & Female, 3 mg): 3.10
Mean # of Lesions (new gadolinium CE T1-weighted, 6 months, observed data) ([2]; Male & Female, 3 mg): 4.51
Percent Change from Placebo (observed mean # of lesions) ([2]; Male & Female, 3 mg): −43.3%
Percent Change from Placebo (inverse of ratio of LSMeans treatment:placebo) ([2]; Male & Female, 3 mg, p 0.0016): −52% (0.0016)
LSMean # of Lesions (new gadolinium CE T1-weighted, 6 months) ([2]; Male, 1 mg): 4.31
Mean # of Lesions (new gadolinium CE T1-weighted, 6 months, observed data) ([2]; Male, 1 mg): 5.93
Percent Change from Placebo (observed mean # of lesions) ([2]; Male, 1 mg): −30.4%
Percent Change from Placebo (inverse of ratio of LSMeans treatment:placebo) ([2]; Male, 1 mg, p 0.0827): −48% (0.0827)
LSMean # of Lesions (new gadolinium CE T1-weighted, 6 months) ([2]; Male, 3 mg): 2.42
Mean # of Lesions (new gadolinium CE T1-weighted, 6 months, observed data) ([2]; Male, 3 mg): 3.81
Percent Change from Placebo (observed mean # of lesions) ([2]; Male, 3 mg): −55.4%
Percent Change from Placebo (inverse of ratio of LSMeans treatment:placebo) ([2]; Male, 3 mg, p 0.0012): −71% (0.0012)
reduction of new T1 lesions in the study analysis ([2]; men, 3 mg per day): 71%
Annualized Confirmed Relapse Rate (ARR) ([3]; 1 mg): 0.28
Annualized Confirmed Relapse Rate (ARR) ([3]; 3 mg): 0.26
